In patent US20230286968A1, “ARYLOXAZOLO SPIRAL RING DERIVATIVES FOR THE TREATMENT AND PROPHYLAXIS OF HEPATITIS B VIRUS INFECTION” (Hoffmann-La Roche Inc., priority 2020, published 2023) one finds IC50 and CC50 data, which are given here for 23 compounds.

One data set deals with HBsAg. The data set can be described thus: PHH natural infection assay, HBsAg (alphalisa). Format: cell-based, HBV. To be noted: Hepatitis B virus, Hepatocyte, read-out: HBsAg IC50, HBV-infected primary human hepatocytes, supernatant, alphalisa. The protocol:
(§1) Detailed procedures regarding primary human hepatocyte (PHH) HBV natural infection assay are described as below. One tube of frozen PHH (10 million cells) is thawed in 37° C. water bath and then transferred to 20 mL of PHH thawing medium (Sigma, InVitroGRO HT Medium, Cat. S03319) with gently mixing. The cells were then centrifuged at […] for 5 min, the supernatant was discarded and the tube was refilled with 25 mL of PHH plating medium (Sigma, InVitroGRO CP Medium, Cat. S03317). The tube was shaken very gently to re-suspend all cells, and then 50 μL of cells were transferred to each well 384-well collagen I coated plate with appropriate liquid handling equipment, e.g. Integra VIAFLO384 or Agilent Bravo. The cells were then cultured for 24 hours in a cell incubator. For HBV infection, after PHH attachment on the culture plate, the plating medium was removed and replenished with PHH culture medium containing HBV virus. The PHH culture medium was prepared with Dulbecco's Modified Eagle Medium (DMEM)/F12 (1:1 in volume ratio) containing 10% fetal bovine serum (Gibco, Cat. 10099141), 5 ng/mL human epidermal growth factor (Gibco, Cat.PHG0311L), 20 ng/mL dexamethasone (Sigma, Cat.D4902-100 mg), 250 ng/mL human recombinant insulin (Gibco, Cat.41400045) and 100 U/mL penicillin. HBV virus at 200 genome equivalent (GE) per cell with 4% PEG8000 (Sigma, Cat.P1458) containing culture medium were added to the PHH culture medium for infection. The cells were then cultured for 24 hours in cell incubator. Then the cell culture supernatant was removed. The HBV-infected PHH were cultured with sandwich culture method with PHH culture medium containing […] and 0.25 mg/mL matrix gel for 72 hours. The supernatant was then refreshed with PHH culture medium containing different concentrations of testing compounds for two times with 72-hour interval. At the end of treatment, the supernatant was collected for viral markers measurements, including HBsAg, HBeAg, HBV DNA and cytotoxicity. HBsAg and HBeAg were detected using alphalisa method using their specific antibodies. For HBV DNA detection, HBV DNA Quantitative Fluorescence Diagnostic Kit (Sansure Biotech Inc.) was used following the manufacture's protocol. Cytotoxicity was determined using Cell Counting Kit-8 (CCK8, Dojindo Molecular Technologies, Inc.).
(§2) The compounds of the present invention were tested for their capacity to inhibit HBsAg and HBeAg as described herein.
In general terms: In Alpha technology, singlet oxygen from a donor bead excites a nearby acceptor bead.

A short description of data set [1]: Cytotoxicity in PHH natural infection assay (Cell Counting Kit-8). The format is cell-based. The note with it: HBV-infected primary human hepatocytes, CCK8. The protocol:
as §1
(In general: Tetrazolium assays rely on reduction of a dye to a coloured formazan, in cell work by metabolically active cells.)

In the next data set the test system is HBeAg. In words: PHH natural infection assay, HBeAg (alphalisa). Format: cell-based, HBV. To be noted: Hepatitis B virus, Hepatocyte, read-out: HBeAg IC50, HBV-infected primary human hepatocytes, supernatant, alphalisa. The protocol:
as §1, §2

In general, IC50 refers to the point on the concentration scale where inhibition reaches its midpoint. What is called CC50 is the concentration that lowers cell viability or growth by half. High values mean better tolerance by the cells, low ones harm at low concentration.

As to `O=C(NC1CC2(C1)CC(c1nc3cc(Cl)ccc3o1)C2)c1ccnc(S(=O)(=O)C2COC2)c1` (stereo not drawn) [Example 25, N-[6-(5-chloro-1,3-benzoxazol-2-yl)spiro[3.3]heptan-2-yl]-2-(oxetan-3-ylsulfonyl)pyridine-4-carboxamide], the IC50 in the data set with HBsAg came out at 4.18 µM; with HBeAg, 2.53 µM. For the same compound, in data set [1], the CC50 at 144 h is greater than 10 µM.
The like results for `CCS(=O)(=O)c1cc(C(=O)NC2CC3(C2)CC(c2nc4cc(Cl)ccc4o2)C3)ccn1` (stereo not drawn) [Example 26, N-[6-(5-chloro-1,3-benzoxazol-2-yl)spiro[3.3]heptan-2-yl]-2-ethylsulfonyl-pyridine-4-carboxamide] were, in that order, 0.28 µM, 0.19 µM and 74.1 µM.
For `CC(C)(C)C(=O)NC1CC2(C1)CC(c1nc3cc(Cl)ccc3o1)C2` (stereo not drawn) [Example 27, N-[6-(5-chloro-1,3-benzoxazol-2-yl)spiro[3.3]heptan-2-yl]-2,2-dimethyl-propanamide] the same measures were 9.77 µM, 9.75 µM and greater than 100 µM.
For `CC(C)CC(=O)NC1CC2(C1)CC(c1nc3cc(Cl)ccc3o1)C2` (stereo not drawn) [Example 28, N-[6-(5-chloro-1,3-benzoxazol-2-yl)spiro[3.3]heptan-2-yl]-3-methyl-butanamide] the same measures were 2.54 µM, 2.28 µM and greater than 100 µM.
Regarding `O=C(NC1CC2(C1)CC(c1nc3cc(Cl)ccc3o1)C2)C1CC(C(F)(F)F)C1` (stereo not drawn) [Example 29, N-[6-(5-chloro-1,3-benzoxazol-2-yl)spiro[3.3]heptan-2-yl]-3-(trifluoromethyl)cyclobutanecarboxamide], the IC50 in the data set with HBsAg is 4.67 µM; in the data set with HBeAg, 3.82 µM. In addition, the CC50 at 144 h in data set [1] is greater than 100 µM.
For `CN1CC(C(=O)NC2CC3(C2)CC(c2nc4cc(Cl)ccc4o2)C3)CC1=O` (stereo not drawn) [Example 30, N-[6-(5-chloro-1,3-benzoxazol-2-yl)spiro[3.3]heptan-2-yl]-1-methyl-5-oxo-pyrrolidine-3-carboxamide] the same measures were 3.89 µM, 2.65 µM and greater than 100 µM.
For `CC(C)(C)N1CC(C(=O)NC2CC3(C2)CC(c2nc4cc(Cl)ccc4o2)C3)CC1=O` (stereo not drawn) [Example 31, 1-tert-butyl-N-[6-(5-chloro-1,3-benzoxazol-2-yl)spiro[3.3]heptan-2-yl]-5-oxo-pyrrolidine-3-carboxamide] the same measures were 7.87 µM, 5.24 µM and greater than 100 µM.
For `O=C(NC1CC2(C1)CC(c1nc3cc(Cl)ccc3o1)C2)C1CC(=O)N(c2ccccc2)C1` (stereo not drawn) [Example 32, N-[6-(5-chloro-1,3-benzoxazol-2-yl)spiro[3.3]heptan-2-yl]-5-oxo-1-phenyl-pyrrolidine-3-carboxamide] the same measures were 8.27 µM, 5.44 µM and greater than 100 µM.
For `Cc1c(Cl)cccc1N1CC(C(=O)NC2CC3(C2)CC(c2nc4cc(Cl)ccc4o2)C3)CC1=O` (stereo not drawn) [Example 33, N-[6-(5-chloro-1,3-benzoxazol-2-yl)spiro[3.3]heptan-2-yl]-1-(3-chloro-2-methyl-phenyl)-5-oxo-pyrrolidine-3-carboxamide], the IC50 in the data set on HBsAg is 3.24 µM; in the data set with HBeAg, 3.07 µM. The compound also gave a CC50 at 144 h in data set [1] of 42.8 µM.
The like results for `CN1CCC(C(=O)NC2CC3(C2)CC(c2nc4cc(Cl)ccc4o2)C3)CC1=O` (stereo not drawn) [Example 34, N-[6-(5-chloro-1,3-benzoxazol-2-yl)spiro[3.3]heptan-2-yl]-1-methyl-2-oxo-piperidine-4-carboxamide] were, in that order, 8.69 µM, 4.42 µM and greater than 100 µM.
The like results for `CN1CC(CC(=O)NC2CC3(C2)CC(c2nc4cc(Cl)ccc4o2)C3)CC1=O` (stereo not drawn) [Example 35, N-[6-(5-chloro-1,3-benzoxazol-2-yl)spiro[3.3]heptan-2-yl]-2-(1-methyl-5-oxo-pyrrolidin-3-yl)acetamide] were, in that order, 9.93 µM, 7.28 µM and greater than 10 µM.
The like results for `CN1C(=O)CCC1CC(=O)NC1CC2(C1)CC(c1nc3cc(Cl)ccc3o1)C2` (stereo not drawn) [Example 36, N-[6-(5-chloro-1,3-benzoxazol-2-yl)spiro[3.3]heptan-2-yl]-2-(1-methyl-5-oxo-pyrrolidin-2-yl)acetamide] were, in that order, 4.05 µM, 3.72 µM and greater than 10 µM.
Regarding `O=C1CCC(CC(=O)NC2CC3(C2)CC(c2nc4cc(Cl)ccc4o2)C3)N1` (stereo not drawn) [Example 37, N-[6-(5-chloro-1,3-benzoxazol-2-yl)spiro[3.3]heptan-2-yl]-2-(5-oxopyrrolidin-2-yl)acetamide], the values for the IC50 in the data set with HBsAg and in the data set on HBeAg were 6 µM and 3.75 µM, respectively. In addition, the CC50 at 144 h in data set [1] is greater than 10 µM.
For `NS(=O)(=O)CCC(=O)NC1CC2(C1)CC(c1nc3cc(Cl)ccc3o1)C2` (stereo not drawn) [Example 38, N-[6-(5-chloro-1,3-benzoxazol-2-yl)spiro[3.3]heptan-2-yl]-3-sulfamoyl-propanamide] the same measures were 9.48 µM, 5.49 µM and greater than 10 µM.
The like results for `NS(=O)(=O)CCCC(=O)NC1CC2(C1)CC(c1nc3cc(Cl)ccc3o1)C2` (stereo not drawn) [Example 39, N-[6-(5-chloro-1,3-benzoxazol-2-yl)spiro[3.3]heptan-2-yl]-4-sulfamoyl-butanamide] were, in that order, 5.98 µM, 4.8 µM and greater than 10 µM.
The like results for `O=C(NC1CC2(C1)CC(c1nc3cc(Cl)ccc3o1)C2)C1CCS(=O)(=O)C1` (stereo not drawn) [Example 40, N-[6-(5-chloro-1,3-benzoxazol-2-yl)spiro[3.3]heptan-2-yl]-1,1-dioxo-thiolane-3-carboxamide] were, in that order, 5.72 µM, 5.09 µM and greater than 100 µM.
Turning to `O=C(NC1CC2(C1)CC(c1nc3ncccc3o1)C2)C1CCS(=O)(=O)C1` (stereo not drawn) [Example 41, N-(6-oxazolo[4,5-b]pyridin-2-ylspiro[3.3]heptan-2-yl)-1,1-dioxo-thiolane-3-carboxamide], the IC50 with HBsAg is 5.28 µM; in the data set on HBeAg, 2.32 µM. Further, in data set [1], the CC50 at 144 h was greater than 100 µM.
For `O=C(NC1CC2(C1)CC(c1nc3cc(Cl)ccc3o1)C2)C1CCCS1(=O)=O` (stereo not drawn) [Example 42, N-[6-(5-chloro-1,3-benzoxazol-2-yl)spiro[3.3]heptan-2-yl]-1,1-dioxo-thiolane-2-carboxamide] the same measures were 9.7 µM, 5.67 µM and greater than 100 µM.
The like results for `O=C(NC1CC2(C1)CC(c1nc3cc(Cl)ccc3o1)C2)C1CNS(=O)(=O)C1` (stereo not drawn) [Example 43, N-[6-(5-chloro-1,3-benzoxazol-2-yl)spiro[3.3]heptan-2-yl]-1,1-dioxo-1,2-thiazolidine-4-carboxamide] were, in that order, 9.04 µM, 3.81 µM and greater than 10 µM.
The like results for `O=C(NC1CC2(C1)CC(c1nc3cc(Cl)ccc3o1)C2)C1CN(Cc2ccccc2)S(=O)(=O)C1` (stereo not drawn) [Example 44, 2-benzyl-N-[6-(5-chloro-1,3-benzoxazol-2-yl)spiro[3.3]heptan-2-yl]-1,1-dioxo-1,2-thiazolidine-4-carboxamide] were, in that order, 4.44 µM, 4.6 µM and greater than 10 µM.
Turning to `O=C(NC1CC2(C1)CC(c1nc3cc(Cl)ccc3o1)C2)C1CCS(=O)(=O)N1` (stereo not drawn) [Example 45, N-[6-(5-chloro-1,3-benzoxazol-2-yl)spiro[3.3]heptan-2-yl]-1,1-dioxo-1,2-thiazolidine-3-carboxamide], the results for the IC50 in the data set on HBsAg and in the data set with HBeAg were 2.41 µM and 1.36 µM, respectively. The CC50 at 144 h in data set [1] was greater than 100 µM.
Consider `CN1C(C(=O)NC2CC3(C2)CC(c2nc4cc(Cl)ccc4o2)C3)CCS1(=O)=O` (stereo not drawn) [Example 46, N-[6-(5-chloro-1,3-benzoxazol-2-yl)spiro[3.3]heptan-2-yl]-2-methyl-1,1-dioxo-1,2-thiazolidine-3-carboxamide], for which the IC50 amounted to 3.9 µM in the data set on HBsAg and 3.41 µM in the data set with HBeAg. In addition, the CC50 at 144 h in data set [1] is greater than 10 µM.
In the case of `O=C(CC1CCCS1(=O)=O)NC1CC2(C1)CC(c1nc3cc(Cl)ccc3o1)C2` (stereo not drawn) [Example 47, N-[6-(5-chloro-1,3-benzoxazol-2-yl)spiro[3.3]heptan-2-yl]-2-(1,1-dioxothiolan-2-yl)acetamide], the IC50 with HBsAg was 3.46 µM; in the data set on HBeAg, 2.1 µM. The compound also registered a CC50 at 144 h in data set [1] greater than 100 µM.
